Experimental data from patent US7345089B2, “Microbial method of making equol-containing composition and product made” (Otsuka Pharmaceutical Co., Ltd., priority 1997, dated 2008).

Tests used:
[1] = Urinary excretion of isoflavonoids after single ingestion of soy milk in healthy adult volunteers; settings: healthy adult volunteers 25-33 years of age
[2] = Determination of urinary excretions of isoflavonoids in perimenopausal women (survey)
Experimental: To accomplish the above object, the inventors first conducted a dietary survey, determination of urinary excretions of isoflavonoids, and a questionnaire survey about menopausal syndrome (unidentified clinical syndrome) in perimenopausal women in a broad geographical area including urban communities.
Furthermore, women with paramenia and those within 5 years of the menopause being taken together as menopausal subjects, a questionnaire survey was conducted using 17 items which are in routine use in the diagnosis of menopausal syndrome [17 items as a modification of Kupperman menopausal index (Kupperman H. S., et al., (1953), J. Clin. Endocrinol. Metabol., 13, 688-703), i.e. 1. hot flushes, 2. perspiration, 3. local sensation of cold, 4. shortness of breath, 5. numbness of limbs, 6. hypesthesia, 7. difficulty in falling asleep, 8. fitful sleep, 9. irritability, 10. nervousness, 11. melancholy, 12. vertigo, nausea, 13. weakness(fatigue), 14. stiff shoulders, pain in joints, muscular pain, 15. headache, 16. palpitation, 17. tingling sensation] and the simplified menopausal index (SMI) was calculated. With subjects with SMI values not less than 20 being taken as a group of high climacteric symptoms and those with SMI values not greater than 19 as a group of low climacteric symptoms, the amount of intake of isoflavonoids and the urinary excretion of isoflavonoids were respectively compared between the groups.

[3] = human, in vivo
[4] = SMI not less than 20 vs SMI not greater than 19, equol p<0.01

| urinary excretions after single ingestion of soy milk [1] | urinary excretions, group of high climacteric symptoms vs group of low climacteric symptoms [2, 4] | average urinary excretions of isoflavonoids ([2]; female, human, in vivo) | equol in urine when intake of soy milk increased two-fold [3] | average excretions of equol (urinary) ([2]; in vivo) | subjects in whom detected in urine ([2]; in vivo) | urinary excretions, group of high climacteric symptoms vs group of low climacteric symptoms ([2]; in vivo) | subjects in whom detected in urine ([2]; of the 95 subjects, number (%)) | average urinary excretions of isoflavonoids ([2]; women aged between 40 and 60) | Compound |
| --- | --- | --- | --- | --- | --- | --- | --- | --- | --- |
| increased in a dose-related fashion | no intergroup difference | 19.6 µmol/day | – | – | – | – | – | – | O=c1c(-c2ccc(O)cc2)coc2cc(O)ccc12 [daidzein] |
| – | – | – | not detected | 11.9 µmol/day | 46 (51.6%) | significantly low | – | – | Oc1ccc(C2COc3cc(O)ccc3C2)cc1 (centres unmarked) [equol] |
| increased in a dose-related fashion | no intergroup difference | – | – | – | – | – | detected in all the subjects | 10.0 µmol/day | O=c1c(-c2ccc(O)cc2)coc2cc(O)cc(O)c12 [genistein] |
